Square brackets hold non-standard residues; d marks the D form. Ends that are not written are not given here. Peptide text beside a SMILES is read from it. hSer = N[C@@H](CCO)C(=O)O
Key:
B. megaterium = assay: halo (inhibition zone) agar assay of bactericidal activity; format: cell-based, Bacillus megaterium; conditions: for Relative activity: ratio of the radius of the cleared halo versus that for E. coli D21: B. megaterium, overnight incubation at 25° C.
Method: (§1) The assay for antimicrobial activity was performed by pouring 10 ml of agar in TYE media containing about 10^7 viable cells of the test organisms. Wells, 2 mm in diameter, were punched in the agar plates. Aliquots of the modified cecropin-like polypeptides (2-12 ul) were then added to each well. The diameter of the inhibition zones, or haloes, around the wells, were measured after overnight incubation at 25° C.
(§2) The activities of various cecropin-like polypeptides were tested against both Gram-negative and Gram-positive organisms. Anti-microbial activity against the Gram-negative organisms remained unaltered for most of the Gram-negative bacteria (except, i.e., Serratia marcescens) as shown in Table 1. […] To determine a standard of halo formation, the various modified cecropin-like polypeptides were also applied to E. coli D21. Activity shown in Tables 1 and 2 is expressed as the ratio of the radius of the cleared halo for each organism versus that for E. coli D21.
(§3) The cecropin-like polypeptide modified at the carboxy terminus with ehtylenediamine and naturally occurring cecropin A were tested against a variety of organisms. The relative activities of the antimicrobial agents were expressed per nanomole of polypeptide applied to each well (Table 3).

S. faecalis = assay: as above; format: cell-based, Streptococcus faecalis
Method: as §1, §2, §3

B. subtilis = assay: as above; format: cell-based; conditions: Bacillus subtilus; per nanomole of polypeptide applied to well
Method: as §1, §2, §3

M. luteus = assay: as above; format: cell-based; conditions: Micrococcus luteus; per nanomole of polypeptide applied to well
Method: as §1, §2, §3

Escherichia coli = assay: halo assay, activity per nanomole; format: cell-based; conditions: per nanomole of polypeptide applied to well
Method: as §1, §3

Bacillus megaterium = conditions: from the literature; cited from earlier work

| Compound | Relative activity: ratio of the radius of the cleared halo versus that for E. coli D21 (B. megaterium) | Sensitivity of Bacillus megaterium to cecropin (Bacillus megaterium) | other results |
| --- | --- | --- | --- |
| CC[C@H](C)[C@H](NC(=O)CNC(=O)[C@H](CC(=O)O)NC(=O)[C@H](CCCNC(=N)N)NC(=O)[C@@H](NC(=O)[C@H](CC(N)=O)NC(=O)[C@H](CCC(N)=O)NC(=O)CNC(=O)[C@@H](NC(=O)[C@H](CCCCN)NC(=O)[C@H](CCC(=O)O)NC(=O)[C@@H](NC(=O)[C@H](CCCCN)NC(=O)[C@H](CCCCN)NC(=O)[C@H](Cc1ccccc1)NC(=O)[C@H](CC(C)C)NC(=O)[C@H](CCCCN)NC(=O)[C@H](Cc1c[nH]c2ccccc12)NC(=O)[C@@H](N)CCCCN)[C@@H](C)CC)C(C)C)[C@@H](C)CC)C(=O)N[C@H](C(=O)N[C@@H](CCCCN)C(=O)N[C@@H](C)C(=O)NCC(=O)N1CCC[C@H]1C(=O)N[C@@H](C)C(=O)N[C@H](C(=O)N[C@@H](C)C(=O)N[C@H](C(=O)N[C@H](C(=O)NCC(=O)N[C@@H](CCC(N)=O)C(=O)N[C@@H](C)C(=O)N[C@H](C(=O)N[C@@H](CCC(N)=O)C(=O)N[C@H](C(=O)N[C@@H](C)C(=O)N[C@@H](CCCCN)C(=O)N[C@@H](CCO)C(=O)O)[C@@H](C)CC)[C@@H](C)O)C(C)C)C(C)C)C(C)C)[C@@H](C)CC [CA--HS--COOH] (H-KWKLFKKIEKVGQNIRDGIIKAGPAVAVVGQATQIAK[hSer]-OH) | 0.5 ± 0.1 |  |  |
| CC[C@H](C)[C@H](NC(=O)CNC(=O)[C@H](CC(=O)O)NC(=O)[C@H](CCCNC(=N)N)NC(=O)[C@@H](NC(=O)[C@H](CC(N)=O)NC(=O)[C@H](CCC(N)=O)NC(=O)CNC(=O)[C@@H](NC(=O)[C@H](CCCCN)NC(=O)[C@H](CCC(=O)O)NC(=O)[C@@H](NC(=O)[C@H](CCCCN)NC(=O)[C@H](CCCCN)NC(=O)[C@H](Cc1ccccc1)NC(=O)[C@H](CC(C)C)NC(=O)[C@H](CCCCN)NC(=O)[C@H](Cc1c[nH]c2ccccc12)NC(=O)[C@@H](N)CCCCN)[C@@H](C)CC)C(C)C)[C@@H](C)CC)C(=O)N[C@H](C(=O)N[C@@H](CCCCN)C(=O)N[C@@H](C)C(=O)NCC(=O)N1CCC[C@H]1C(=O)N[C@@H](C)C(=O)N[C@H](C(=O)N[C@@H](C)C(=O)N[C@H](C(=O)N[C@H](C(=O)NCC(=O)N[C@@H](CCC(N)=O)C(=O)N[C@@H](C)C(=O)N[C@H](C(=O)N[C@@H](CCC(N)=O)C(=O)N[C@H](C(=O)N[C@@H](C)C(=O)N[C@@H](CCCCN)C(=O)N[C@@H](CCO)C(N)=O)[C@@H](C)CC)[C@@H](C)O)C(C)C)C(C)C)C(C)C)[C@@H](C)CC [CA--HS--NH2] (H-KWKLFKKIEKVGQNIRDGIIKAGPAVAVVGQATQIAK[hSer]-NH2) | 0.4 ± 0.2 |  | Relative activity: ratio of the radius of the cleared halo versus that for E. coli D21 (S. faecalis; S. faecalis, overnight incubation at 25° C.): 0 |
| KWKLFKKIEKVGQNIRDGIIKAGPAVAVVGQATQIAK [CA--COOH] | 0.2 ± 0.08 |  |  |
| KWKLFKKIEKVGQNIRDGIIKAGPAVAVVGQATQIAK-NH2 [CA--NH2, cecropin A] | 0.7 ± 0.05 | highly sensitive | Activity per Nanomole (radius of the inhibitory ring) (B. subtilis): < 0.5 millimeters; Activity per Nanomole (radius of the inhibitory ring) (M. luteus): 6.1 millimeters; Activity per Nanomole (radius of the inhibitory ring) (Escherichia coli): 6.1 millimeters; Activity per Nanomole (radius of the inhibitory ring) (S. faecalis; Streptococcus faecalis, per nanomole of polypeptide applied to well): < 0.5 millimeters; Activity per Nanomole (radius of the inhibitory ring) (B. megaterium; Bacillus megaterium, per nanomole of polypeptide applied to well): 5.1 millimeters |
| cecropin B (KWKVFKKIEKMGRNIRNGIVKAGPAIAVLGEAKAL; ends and bridges not checked; UniProt P01508 27-61, looked up) [natural antibacterial peptide purified from immune hemolymph] |  | highly sensitive |  |
| cecropin D |  | relatively resistant |  |

Reference: patent US5344765A, “DNA encoding polypeptides with activity against gram-positive and gram-negative bacteria” (priority 1993, dated 1994)
